Where two headings read alike, the source gives them in different places. Where a SMILES comes first, the peptide text is derived from it. [ ]: non-standard residue; d: D form. Orn = NCCC[C@H](N)C(=O)O
What was measured:
HepG2 cells [1] = details: for IC50: read-out: MMP assays IC50 (µM) HepG2
rat primary hepatocytes [2] = system: rat primary hepatocytes
HepG2 cells [3] = details: cited from earlier work
rat primary hepatocytes [4] = assay: MMP assay in rat primary hepatocytes; details: for IC50: read-out: MMP assays IC50 (µM) Rat Hepatocytes
HepG2 cells [5] = assay: cells; details: Homo sapiens
[6] = read-out: MMP assays IC50 (µM) qHTS-HepG2
[7] = read-out: MMP assays IC50 (µM), qHTS-HepG2
[8] = HepG2 cells, single number from one experiment

Compound	MMP assays IC50 (µM) HepG2 (HepG2 cells [1])	MMP assays efficacy (%) HepG2 (HepG2 cells [1])	MMP assays efficacy (%) Rat Hepatocytes (rat primary hepatocytes [2])	MMP assays efficacy (%) qHTS-HepG2 (HepG2 cells [3])	IC50 (HepG2 cells [3]; [6]) [µM]	IC50 (rat primary hepatocytes [4]; Rattus norvegicus, Hepatocyte) [µM]	IC50 (HepG2 cells [1]) [µM]	IC50 (rat primary hepatocytes [4]) [µM]	IC50 (HepG2 cells [3]; [7]) [µM]	MMP assays IC50 (µM) Rat Hepatocytes (rat primary hepatocytes [4])	MMP assays IC50 (µM) qHTS-HepG2 (HepG2 cells [3])	MMP assays efficacy (%) HepG2 (HepG2 cells [1]; [8]) [%]	IC50 (HepG2 cells [1]; [8]) [µM]	IC50 (rat primary hepatocytes [4]; rat hepatocytes, mean ± SD of three experiments) [µM]	IC50 (HepG2 cells [5]; HepG2, read-out: MMP assays IC50 (µM) HepG2) [µM]	Emax (HepG2 cells [5]; HepG2, read-out: MMP assays efficacy (%) HepG2) [%]
CC(=Cc1ccccc1)[N+](=O)[O-] [(2-Nitro-1-propenyl)benzene]	inactive	inactive	-107±47%	-105±10%	38.6 ± 15.3	25.9 ± 8.35	–	–	–	–	–	–	–	–	–	–
O=C1NCN(c2ccccc2)C12CCN(CCCOc1ccc(F)cc1)CC2 [AMI-193]	–	-75%	-37±21%	-73±11%	5.82 ± 3.05	–	7.74	26 ± 12.2	–	–	–	–	–	–	–	–
Cc1oc(C)c(C(=O)Nc2ccccc2)c1C [Methfuroxam]	–	-48%	inactive	-69±12%	–	–	17.8	–	25.8 ± 1.71	inactive	–	–	–	–	–	–
CC(C)(C)c1ccc(CN2CCN(C(c3ccccc3)c3ccc(Cl)cc3)CC2)cc1.Cl.Cl (centres unmarked) [Buclizine dihydrochloride]	inactive	inactive	inactive	-52±10%	32.2 ± 2.1	–	–	–	–	inactive	–	–	–	–	–	–
O=C1c2ccccc2C(=O)C1c1ccccc1 [Phenindione]	inactive	inactive	inactive	inactive	–	–	–	–	–	inactive	inactive	–	–	–	–	–
CC=O [Acetaldehyde]	inactive	inactive	-52±35%	-90±14%	18 ± 6.38	–	–	6.65 ± 4.48	–	–	–	–	–	–	–	–
CC(=O)O[Si](C)(OC(C)=O)OC(C)=O [Methylsilanetriyl triacetate]	inactive	inactive	inactive	-67±10%	–	–	–	–	29.1 ± 16.4	inactive	–	–	–	–	–	–
CCCCCCCCCCCC(=O)[O][Sn]([CH2]CCC)([CH2]CCC)[O]C(=O)CCCCCCCCCCC [Dibutyltin dilaurate]	–	-86%	-52+36%	inactive	–	–	27.5	22.4 ± 7.17	–	–	inactive	–	–	–	–	–
CCCCC/C(=C\c1ccccc1)CO [alpha-Amylcinnamyl alcohol]	–	-69%	-85±44%	-87±10%	38.1 ± 17.4	–	56.2	4.83 ± 4.07	–	–	–	–	–	–	–	–
O=C(Nc1ccc(Br)cc1)c1cc(Br)cc(Br)c1O [Tribromosalan]	–	–	-96±35%	–	–	–	–	–	1.12	–	–	-111	0.97	0.55 ± 0.36	–	–
CS(=O)(=O)O.CS(=O)(=O)O.N=C(N)c1ccc(/C=C/c2ccc(C(=N)N)cc2O)cc1	inactive	inactive	-71±16%	-57±17%	–	–	–	13.6 ± 8.28	2.81 ± 0.9	–	–	–	–	–	–	–
CCCCC(CC)C(=O)[O-].CCCCC(CC)C(=O)[O-].[Ba+2] (centres unmarked) [Barium bis(2-ethylhexanoate)]	inactive	inactive	-43±30%	-58±20%	15.4 ± 10.3	–	–	–	–	inactive	–	–	–	–	–	–
O=C(NC(=O)c1c(F)cccc1F)Nc1ccc(OC(F)(F)C(F)OC(F)(F)F)c(Cl)c1 (centres unmarked) [Novaluron]	inactive	inactive	inactive	inactive	–	–	–	–	–	inactive	inactive	–	–	–	–	–
Mepartricin	–	-99%	-65±17%	-82±8%	–	–	6.9	27.7 ± 4.48	23.2 ± 6.59	–	–	–	–	–	–	–
[F][Sn]([c]1ccccc1)([c]1ccccc1)[c]1ccccc1 [Triphenyltin fluoride]	–	-104%	-81±23%	-106±5%	–	–	1.78	6.17 ± 2.51	0.47 ± 0.31	–	–	–	–	–	–	–
CC(C)C[C@@H]1NC(=O)[C@H](CCCN)NC(=O)[C@H](C(C)C)NC(=O)[C@@H]2CCCN2C(=O)[C@@H](Cc2ccccc2)NC(=O)[C@H](CC(C)C)NC(=O)[C@H](CCCN)NC(=O)[C@H](C(C)C)NC(=O)[C@@H]2CCCN2C(=O)[C@@H](Cc2ccccc2)NC1=O [gramicidin, reference compound] (cyclo(L[dF]PV[Orn]L[dF]PV[Orn]))	–	-121%	-112±28%	-86±3%	–	–	–	–	0.51 ± 0.42	–	–	–	–	–	–	–
Cc1cccc(C)c1Nc1ncccc1C(=O)O [Metanixin]	–	-101%	-93±28%	-122±21%	–	–	21.8	21 ± 1.37	26 ± 2.11	–	–	–	–	–	–	–
C[C@@H]1C/C=C/C=C/C=C/C=C/[C@H](O[C@@H]2O[C@H](C)[C@@H](O)[C@H](N)[C@@H]2O)C[C@@H]2O[C@](O)(C[C@@H](O)C[C@H]3O[C@@H]3/C=C/C(=O)O1)C[C@H](O)[C@H]2C(=O)O [Natamycin]	inactive	inactive	inactive	inactive	–	–	–	–	–	inactive	inactive	–	–	–	–	–
[OH-].c1cc[c]([Sn+]([c]2ccccc2)[c]2ccccc2)cc1 [Triphenyltin hydroxide]	–	-94%	-118±53%	-95±9%	–	–	1.12	14.8 ± 5.12	0.12 ± 0.03	–	–	–	–	–	–	–
O=C(N[C@@H]1N=C(c2ccccc2F)c2cccc3c2N(CC3)C1=O)c1cc2ccccc2[nH]1	–	-81%	-61±16%	-64±4%	8.41	–	13.8	17.3	–	–	–	–	–	–	–	–
CCCCCCCCCCCCCC[n+]1ccc(C)cc1.[Cl-] [Miripirium chloride]	–	-121%	-106±27%	-86±9%	–	–	–	19.5 ± 2.25	16.4 ± 4.01	–	–	–	–	–	–	–
Nc1ccc(-c2ccc(N)c(N)c2)cc1N [3,3'-Diaminobenzidine]	–	-55%	-62±22%	-115±16%	13.7 ± 14.9	–	4.47	30.7 ± 28.3	–	–	–	–	–	–	–	–
CCN(CC)C(=S)[S-].CCN(CC)C(=S)[S-].[Zn+2] [Zinc diethyldithiocarbamate]	–	-63%	-95±12%	-70±15%	–	–	–	–	–	–	–	–	–	–	–	–
CCOc1nc2cccc(C(=O)OC(C)OC(=O)OC3CCCCC3)c2n1Cc1ccc(-c2ccccc2-c2nnn[nH]2)cc1 (centres unmarked) [Candesartan cilexetil]	–	–	inactive	-124±13%	15.9 ± 4.62	–	–	–	–	inactive	–	–	–	–	11.2	101
